Several values for one entry are separate records, joined by “and”; a condition that tells them apart may be missing. Equal values may be shown once. Read-outs that look alike come from different tables or passages of the source. Positions of bridges follow the written chain, without caps; N, C: chain ends. Residues, ends and D or L forms follow the SMILES beside them.
Tests used:
E. coli CVCC1515 = test: microbe, parasite or virus in culture; assay type: cell-based
Text: (§1) All experiments were repeated three times.

[1] = tested on: Candida albicans CMCC98001; test: microbe, parasite or virus in culture; assay type: cell-based; settings: CMCC98001; read-out: MIC
Text: as §1

[2] = tested on: Staphylococcus aureus ATCC43300; test: microbe, parasite or virus in culture; assay type: cell-based
Text: as §1

S. pullorum CVCC1809 = test: microbe, parasite or virus in culture; assay type: cell-based; settings: S. pullorum CVCC1809, broth dilution, 37 °C, 16–18 h, three experiments
Text: as §1

A. veronii X-1-06909 = test: microbe, parasite or virus in culture; assay type: cell-based
Text: as §1

E. coli CVCC25922 = test: microbe, parasite or virus in culture; assay type: cell-based; settings: E. coli CVCC25922, broth dilution, 37 °C, 16–18 h, three experiments
Text: as §1

Escherichia coli CVCC195 = test: microbe, parasite or virus in culture; assay type: cell-based; settings: Escherichia coli CVCC195, broth dilution, 37 °C, 16–18 h, three experiments
Text: as §1

S. pullorum CVCC1789 = test: microbe, parasite or virus in culture; assay type: cell-based
Text: as §1

S. enteritidis CVCC3377 = test: microbe, parasite or virus in culture; assay type: cell-based
Text: as §1

S. pullorum CVCC533 = test: microbe, parasite or virus in culture; assay type: cell-based
Text: as §1

A. veronii ACCC61732 [3] = test: Time-killing curves; assay type: cell-based; settings: 2× MIC; 1 × 10^5 CFU/mL, colony counting, 0–24 h
Experimental: Time-killing curves were performed as previously described. […] The sample of 100 μL was taken from each flask at 0, 0.5, 1, 2, 4, 6, 8, 10, 20, and 24 h, respectively, and serially diluted for colony counting. PBS and CIP were used as the negative and positive control, respectively.

A. veronii ACCC61732 [4] = test: Resistance development, 30 serial passages; assay type: cell-based; settings: A. veronii ACCC61732, 30 passages (30 days)
Experimental: The development of bacterial resistance of peptides was performed by the MIC assays. […] GEN, CIP, and PMB were used as controls. […] The MIC values were measured as described above. The serial passaging was repeated for 30 days.

E. coli CVCCO157 = test: MIC, microtiter broth dilution; assay type: cell-based; settings: 37 °C, 16–18 h, three experiments
Text: as §1

A. veronii ACCC61732 [5] = test: Inner membrane permeability, PI staining, flow cytometry; assay type: cell-based
Experimental: To analyze effects of peptides on the inner membrane, A. veronii ACCC61732 cells were cultured to mid-log phase at 37 °C in MHB medium, washed thrice with PBS, and resuspended in the PBS buffer to 1 × 10^8 CFU/mL. […] After fixation with PI, the samples were detected by a fluorescent inverted microscope and FACS Calibur Flow Cytometer (BD, San Jose, CA, USA), respectively. Cell Quest Pro software (BD, San Jose, CA, USA) was used for the data analysis.

[6] = tested on: A. veronii ACCC61732 in biofilm; assay type: cell-based; settings: 2 h
Experimental: The mid-log phase A. veronii ACCC61732 cells (1 × 10^8 CFU/mL) were inoculated into in the 96-well plates and cultured for 24 h at 37 °C. The plates were washed twice with PBS. […] PBS was used as the negative control. The plates were treated with ultrasound for 5 min and the viable bacteria were counted on the TSA plates.

S. hyicus 437-2 = assay type: cell-based
TNF-α = test: Serum cytokine, ELISA, peritonitis model; assay type: in vivo; settings: 5 μmol/kg, 24 h after treatment, range over mice
Experimental: (§2) Sera and organs (livers, kidneys, spleens, and lungs) were collected from the mice at 24 h post-treatment. The organs were homogenized in sterile PBS to evaluate bacterial translocation by colony counting. The levels of cytokines (TNF-α, IL-1β, IL-6, and IL-10) in sera were detected using the ELISA kits.

IL-10 = test: Serum cytokine, ELISA, peritonitis model; assay type: in vivo; settings: 5 μmol/kg, 24 h after treatment, range over mice
Experimental: as §2

IL-6 = test: Serum cytokine, ELISA, peritonitis model; assay type: in vivo; settings: 5 μmol/kg, 24 h after treatment, range over mice
Experimental: as §2

IL-1β = test: Serum cytokine, ELISA, peritonitis model; assay type: in vivo; settings: 5 μmol/kg, 24 h after treatment, range over mice
Experimental: as §2

A. veronii ACCC61732 [7] = test: Post-antibiotic effect (PAE); assay type: cell-based; settings: for PAE: 2 h exposure, 1000-fold dilution, 37 °C, triplicate; for PAEs, range over 1×–4× MIC: 1× to 4× MIC
Experimental: The samples were taken from flasks for counting each hour until bacterial cultures became turbid. The untreated bacteria severed as controls. The PAE was calculated using the following equation: PAE = T − C, where T is the time (h) required for the CFU in the test culture to increase by 10-fold from the count immediately after the drug removal and C is the corresponding time (h) for the control. The experiment was performed in triplicate.

Salmonella = settings: range over the strains of Table 2
[8] = E. coli CVCC1515, broth dilution, 37 °C, 16–18 h, three experiments
[9] = Staphylococcus aureus ATCC43300, broth dilution, 37 °C, 16–18 h, three experiments
[10] = A. veronii X-1-06909, broth dilution, 37 °C, 16–18 h, three experiments
[11] = S. pullorum CVCC1789, broth dilution, 37 °C, 16–18 h, three experiments
[12] = S. enteritidis CVCC3377, broth dilution, 37 °C, 16–18 h, three experiments
[13] = S. pullorum CVCC533, broth dilution, 37 °C, 16–18 h, three experiments
[14] = S. hyicus 437-2 (clinical isolate, pig farm), broth dilution, 37 °C, 16–18 h, three experiments

| Compound | MIC (E. coli CVCC1515; CVCC1515, read-out: MIC) | MIC (E. coli CVCC1515; [8]) | MIC [1] | MIC [2, 9] | MIC (S. pullorum CVCC1809) | MIC (A. veronii X-1-06909; [10]) | MIC (A. veronii X-1-06909; read-out: MIC) | MIC (E. coli CVCC25922) | MIC (Escherichia coli CVCC195) | MIC (S. pullorum CVCC1789; CVCC1789, read-out: MIC) | MIC (S. pullorum CVCC1789; [11]) | MIC (S. enteritidis CVCC3377; CVCC3377, read-out: MIC) | MIC (S. enteritidis CVCC3377; [12]) | MIC (S. pullorum CVCC533; [13]) | time to completely kill A. veronii ACCC61732 (A. veronii ACCC61732 [3]) | increase of MIC after 30 serial passages (A. veronii ACCC61732 [4]) | MIC (E. coli CVCCO157) | Permeability (PI-positive cells) (A. veronii ACCC61732 [5]; 1× MIC, 0.5 h) | Permeability (PI-positive cells) (A. veronii ACCC61732 [5]; 1× MIC, 2 h) | Permeability (PI-positive cells) (A. veronii ACCC61732 [5]; 2× MIC, 0.5 h) | also measured |
| --- | --- | --- | --- | --- | --- | --- | --- | --- | --- | --- | --- | --- | --- | --- | --- | --- | --- | --- | --- | --- | --- |
| CC(C)[C@@H]1NC(=O)CNC(=O)[C@H](CC(N)=O)NC(=O)[C@H](CCCNC(=N)N)NC(=O)[C@H](Cc2ccc(O)cc2)NC(=O)[C@H](C(C)C)NC(=O)[C@@H](NC(=O)[C@@H](NC(=O)[C@H](CC(N)=O)NC(=O)[C@H](Cc2c[nH]c3ccccc23)NC(=O)[C@H](C)NC(=O)[C@H](Cc2ccccc2)NC(=O)CN)C(C)C)CSSC[C@@H](C(=O)N[C@@H](Cc2cnc[nH]2)C(=O)N[C@@H](CCCNC(=N)N)C(=O)N[C@@H](CCCNC(=N)N)C(=O)N[C@@H](C)C(=O)N[C@@H](CC(N)=O)C(N)=O)NC(=O)[C@H](C(C)C)NC(=O)[C@H](CCCNC(=N)N)NC1=O [N6NH2] | 0.81 µM | 2 µg/mL | >52 µM | 16 µg/mL | 4 µg/mL | 32 µg/mL | 12.9 µM | 4 µg/mL | 4 µg/mL | 3.23 µM | 8 µg/mL | 0.81 µM | 2 µg/mL | 4 µg/mL | 8 h | one-fold | 4 µg/mL | 0% | 1.39% | 0% | MIC ([2]; ATCC43300, read-out: MIC): 6.46 µM; Permeability (PI-positive cells) (A. veronii ACCC61732 [5]; 2× MIC, 2 h): 1.49%; bacteria in biofilm killed [6]; 8: 65.49%; bacteria in biofilm killed [6]; 16: 75.36%; MIC (S. hyicus 437-2): 12.9 µM; MIC (S. hyicus 437-2; [14]): 32 µg/mL; serum level of TNF-α (TNF-α): 40.65 to 55.67 pg/mL; serum level of IL-10 (IL-10): 17.02 to 20.87 pg/mL; serum level of IL-6 (IL-6): 47.22 to 108.59 pg/mL; serum level of IL-1β (IL-1β): 6.06 to 10.82 pg/mL; PAE (A. veronii ACCC61732 [7]; 1× MIC): 0.69 ± 0.01 h; PAEs, range over 1×–4× MIC (A. veronii ACCC61732 [7]): 0.69 to 1.17 h; PAE (A. veronii ACCC61732 [7]; 2× MIC): 0.7 ± 0.01 h; PAE (A. veronii ACCC61732 [7]; 4× MIC): 1.17 ± 0.22 h |
| CC(C)[C@@H]1NC(=O)CNC(=O)[C@H](CC(N)=O)NC(=O)[C@H](CCCNC(=N)N)NC(=O)[C@H](Cc2ccc(O)cc2)NC(=O)[C@H](C(C)C)NC(=O)[C@@H](NC(=O)[C@@H](NC(=O)[C@H](CC(N)=O)NC(=O)[C@H](Cc2c[nH]c3ccccc23)NC(=O)[C@H](C)NC(=O)[C@H](Cc2ccccc2)NC(=O)CN)C(C)C)CSSC[C@@H](C(=O)N[C@@H](Cc2c[nH]cn2)C(=O)N[C@@H](CCCNC(=N)N)C(=O)N2CCC[C@H]2C(=O)N[C@@H](C)C(=O)N[C@@H](CC(N)=O)C(N)=O)NC(=O)[C@H](C(C)C)NC(=O)[C@H](CCCNC(=N)N)NC1=O [N6PNH2] (H-GFAWNVCVYRNGVRVCHRPAN-NH2; disulfide 7-16 (inferred)) | 1.66 µM | 4 µg/mL | >52.98 µM | >64 µg/mL | 8 µg/mL | 64 µg/mL | 26.49 µM | 8 µg/mL | 8 µg/mL | 6.62 µM | 16 µg/mL | 0.83 µM | 2 µg/mL | 32 µg/mL | 2 h | three-fold | 8 µg/mL | 0% | 2.11% | 0.68% | MIC (S. pullorum CVCC1809; read-out: MIC): 3.31 µM; MIC (E. coli CVCC25922; read-out: MIC): 3.31 µM; MIC (Escherichia coli CVCC195; read-out: MIC): 3.31 µM; MIC (S. pullorum CVCC533; CVCC533, read-out: MIC): 13.25 µM; MIC (E. coli CVCCO157; read-out: MIC): 3.31 µM; Permeability (PI-positive cells) (A. veronii ACCC61732 [5]; 2× MIC, 2 h): 1.35%; Permeability (PI-positive cells) (A. veronii ACCC61732 [5]; 4× MIC, 0.5 h): 0%; Permeability (PI-positive cells) (A. veronii ACCC61732 [5]; 4× MIC, 2 h): 1.23%; bacteria in biofilm killed [6]; 8: 57.99%; bacteria in biofilm killed [6]; 16: 67.44%; MIC values against Salmonella (Salmonella): 0.83 to 13.25 µM; MIC (S. hyicus 437-2; [14]): >64 µg/mL; serum level of IL-10 (IL-10): no discrepancy of IL-10 levels; PAE (A. veronii ACCC61732 [7]; 1× MIC): 0.52 ± 0.01 h; PAEs, range over 1×–4× MIC (A. veronii ACCC61732 [7]): 0.52 to 0.68 h; PAE (A. veronii ACCC61732 [7]; 2× MIC): 0.62 ± 0.01 h; PAE (A. veronii ACCC61732 [7]; 4× MIC): 0.68 h and 0.68 ± 0.01 h |

— PMC7767178 (International Journal of Molecular Sciences, 2020)
